{"source": "patent US20020173523A1", "about": "“IMMUNOSUPPRESSION BY PHOTOCHEMOTHERAPY” (priority 1997, published 2002)", "key": {"BALB/c mice": {"tested_on": "BALB/c mice", "assay": "Contact hypersensitivity test: ear swelling after primary and secondary sensitization with picryl chloride, photochemotherapy with 664 nm laser light", "format": "in vivo", "settings": "for Rate of Ear swelling, (%) (Average value ± Standard deviation): laser 664 nm, 10 J/cm^2, 30 min after dosing, untreated group = 100%, 24 h after secondary sensitization", "text": "After the intravenous injection, hair of the abdominal side of the mice was shaved off. Thirty minutes after the administration of the test compound, a laser light at a wave length of 664 nm was irradiated onto the exposed skin of the abdominal side of the mice to give a total fluence of 10 J/cm^2 under the conditions of the laser output of 20 mW/cm^2 and the radiated spots of a diameter of 18 mm.\nFive days after the primary sensitization, an aqueous solution containing 1% picryl chloride was applied to one ear of each mouse under test, to effect the secondary sensitization. Thus, there were prepared the treated groups of the test mice having a contact hypersensitibity.\n(iii) Twenty-four hours after the secondary sensitization, namely six days after the primary sensitization, measurements were made of the thickness of both the ears of each mouse under test by a thickness gauge, and the increases in the thickness of ears were calculated from the difference which was found between the thickness of the one ear having not received the application of picryl chloride and the thickness of the another ear having received the application of picryl chloride for the secondary sensitization. Then, the rates (%) of ear swelling of each mouse of the treated group of mice were evaluated, on such assumption that the average value of the increase in the thickness of the secondarily sensitized ears of the mice of the untreated group was regarded as amounting to 100%, in respect of the mice of the untreated group of mice where the mice were neither administered with the test compound, nor were irradiated with the laser light, but where the mice received only the primary and secondary sensitizations with picryl chloride."}, "[1]": {"tested_on": "mice of BALB/c (H-2K^d) strain", "assay": "Rejection reactions upon transplantation of skin in mice, photochemotherapy with 664 nm laser light", "format": "in vivo", "settings": "for Percentage (%) of number of the mice with the surviving and remaining skin graft transplanted: 1 mg/kg i.v., laser 664 nm 10 J/cm^2", "experimental": "The following experiment was conducted in order to evaluate the therapeutic effect of the photochemotherapeutical method of this invention for treating the rejection reactions raised upon the transplantation of skin in mice.\nThus, as the mice (the recipient) which were to recieve a transplantation of skin, were used mice of BALB/c (H-2K^d) strain (ten mice per group). […] Thirty minutes after the intravenous injection of the test compound, a laser light at the wave length of 664 nm was irradiated onto the abdominal side of each recipient mouse at the laser output of 20 mW/cm^2, at the irradiated spots of a diameter of 18 mm and at a total laser fluence of 10 J/cm^2.\nOn the other hand, mice of CH/HeN(H-2K^b) strain were used as the mice (the donor) which were to afford the graft of skin for the transplantation to the recipient. The graft of skin to be used for the skin transplantation was one piece of the tail skin of the donor mice which was cut into a piece of about 5 mm×5 mm. This graft of skin was transplanted on the back side of the recipient mouse in such a manner that hair of the back side of the mouse was firstly shaved off, then one region of the skin of the hair-shaved back side of mouse was stripped off and the skin graft was transplanted onto the skin-stripped region of the back side of the recipient mouse. This skin transplantation was performed twenty-four hours after the irradiation of laser light on the recipient mouse.\nThen, observation was made as to whether the skin graft so transplanted would fall off or not fall from the recipient mouse within the period of from the time of the skin transplantation to the 15 the days after the intravenous injection of the test compound.\nThe number of the recipient mice which normally have the transplanted and surviving skin graft remaining on the back side of mouse was counted at each of the given days of observation. The ratio of the number of the graft-remaining mouse at the each day to the number of the mouse at 0 day was expressed as percentage (%), with that the number of the recipient mice at the 0 day being assumed as 100.\nMice of the untreated group were those mice which received the skin transplantation only but neither received the administration of the test compound nor received the irradiation of laser light."}, "CD-1 mice (male)": {"tested_on": "CD-1 mice (male)", "assay": "Acute toxicity", "format": "in vivo"}}}
{"smiles": "C=Cc1c(C)c2cc3nc(c(CC(=O)N[C@@H](CC(=O)[O-])C(=O)[O-])c4[nH]c(cc5nc(cc1[nH]2)C(C)=C5CC)c(C)c4C(=O)[O-])[C@@H](CCC(=O)[O-])[C@@H]3C.[Na+].[Na+].[Na+].[Na+]", "values": [{"measurement": "Rate of Ear swelling, (%) (Average value ± Standard deviation)", "setting": "BALB/c mice; 0.001 mg/kg i.v.", "value": "54.4 ± 7.2", "unit": "%"}, {"measurement": "Rate of Ear swelling, (%) (Average value ± Standard deviation)", "setting": "BALB/c mice; 0.01 mg/kg i.v.", "value": "53.2 ± 20.6", "unit": "%"}, {"measurement": "Rate of Ear swelling, (%) (Average value ± Standard deviation)", "setting": "BALB/c mice; 0.05 mg/kg i.v.", "value": "33.3 ± 4.4", "unit": "%"}, {"measurement": "Rate of Ear swelling, (%) (Average value ± Standard deviation)", "setting": "BALB/c mice; 0.1 mg/kg i.v.", "value": "27.8 ± 8.5", "unit": "%"}, {"measurement": "Suppression of the ear swelling", "setting": "BALB/c mice; i.v. dosages of 0.001 mg/kg or more, then laser light", "value": "≥ 45", "unit": "%"}, {"measurement": "Ear swelling in contact hypersensitivity testing (result in words)", "setting": "BALB/c mice; i.v., laser light at 664 nm", "value": "remarkably be suppressed"}, {"measurement": "Percentage (%) of number of the mice with the surviving and remaining skin graft transplanted", "setting": "[1]; 0th day (day of skin transplantation)", "value": 100, "unit": "%"}, {"measurement": "Percentage (%) of number of the mice with the surviving and remaining skin graft transplanted", "setting": "[1]; 6th day", "value": 100, "unit": "%"}, {"measurement": "Percentage (%) of number of the mice with the surviving and remaining skin graft transplanted", "setting": "[1]; 7th day", "value": 80, "unit": "%"}, {"measurement": "Percentage (%) of number of the mice with the surviving and remaining skin graft transplanted", "setting": "[1]; 10th day", "value": 80, "unit": "%"}, {"measurement": "Percentage (%) of number of the mice with the surviving and remaining skin graft transplanted", "setting": "[1]; 11th day", "value": 80, "unit": "%"}, {"measurement": "Percentage (%) of number of the mice with the surviving and remaining skin graft transplanted", "setting": "[1]; 15th day", "value": 0, "unit": "%"}, {"measurement": "Rejection reactions in transplantation of skin (result in words)", "setting": "[1]; i.v., laser light at 664 nm", "value": "preventively suppressed"}, {"measurement": "Percentage of the total mice tested with falling off of the skin graft", "setting": "[1]; within the period of 6th to 11th days, treated group", "value": 20, "unit": "%"}, {"measurement": "LD50", "setting": "CD-1 mice (male)", "value": 164, "unit": "mg/kg"}, {"measurement": "Photo-toxicity reactions (result in words)", "setting": "Photo-toxicity test", "value": "no reactions such as erythema, edema"}]}
